Reference: publication PMC4503722, “Novel Phenotypic Outcomes Identified for a Public Collection of Approved Drugs from a Publicly Accessible Panel of Assays” (PLoS ONE, 2015)

How the values were obtained:
INS-1E cells [1] = assay: cells; assay type: cell-based, rat; conditions: 5 mM glucose; for 5mMGluc_INS1E SecretionMod IC50/EC50: assay number 8
[2] = system: tonic K+ channel activity in INS-1E cells; assay: cells; assay type: cell-based, rat; conditions: 0.1 mM glucose; for 0.1mMGluc_INS1E FluxOR IC50/EC50: assay number 10
INS-1E cells [3] = assay type: cell-based, rat; conditions: 0.1 mM glucose; for 0.1mMGluc_INS1E SecretionMod Act IC50/EC50: assay number 9
HeLa cells = assay: cells; assay type: cell-based; conditions: for Hela CellCycMod PI 2N IC50/EC50: assay number 14; for Hela CellCycMod PI S Phase IC50/EC50: assay number 15; for Hela CellCycMod PI 4N IC50/EC50: assay number 16; for Hela CellCycMod PI MI IC50/EC50: assay number 17; for Hela CellCycMod PI Cell Number IC50/EC50: assay number 18
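Wherever 5mMGluc INS1E SecretionMod IC50/EC50 is given: secreted insulin quantified by homogeneous immunoassay.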
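Wherever IC50/EC50, 5mMGluc INS1E SecretionMod (assay number 8) is given: secreted insulin quantified by homogeneous immunoassay.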

Compound | 5mMGluc_INS1E SecretionMod IC50/EC50 (INS-1E cells [1]) [µM] | 0.1mMGluc_INS1E FluxOR IC50/EC50 [2] [µM] | 0.1mMGluc_INS1E SecretionMod Act IC50/EC50 (INS-1E cells [3]) [µM] | Hela CellCycMod PI 2N IC50/EC50 (HeLa cells; 2N) [µM] | Hela CellCycMod PI S Phase IC50/EC50 (HeLa cells) [µM] | Hela CellCycMod PI 4N IC50/EC50 (HeLa cells; 4N) [µM] | Hela CellCycMod PI MI IC50/EC50 (HeLa cells; MI) [µM] | Hela CellCycMod PI Cell Number IC50/EC50 (HeLa cells) [µM] | also measured
O=c1[nH]c2ccccc2n1CCCN1CCC(n2c(=O)[nH]c3cc(Cl)ccc32)CC1 [NCGC00014670-17] |  |  |  |  |  |  |  |  | IC50/EC50, 5mMGluc_INS1E SecretionMod (assay number 8) (INS-1E cells [1]): 12.4283 µM; IC50/EC50, 0.1mMGluc_INS1E FluxOR (assay number 10) [2]: 36.5303 µM; IC50/EC50, 0.1mMGluc_INS1E SecretionMod Act (assay number 9) (INS-1E cells [3]): > 33.33 µM
CN(C)CCC=C1c2ccccc2CCc2ccccc21.Cl [NCGC00015095-15] |  |  |  |  |  |  |  |  | IC50/EC50, 5mMGluc_INS1E SecretionMod (assay number 8) (INS-1E cells [1]): 2.999 µM; IC50/EC50, 0.1mMGluc_INS1E FluxOR (assay number 10) [2]: 6.243 µM; IC50/EC50, 0.1mMGluc_INS1E SecretionMod Act (assay number 9) (INS-1E cells [3]): > 33.33 µM; IC50/EC50, Hela CellCycMod PI 2N (assay number 14) (HeLa cells; 2N): > 10 µM; IC50/EC50, Hela CellCycMod PI 4N (assay number 16) (HeLa cells; 4N): > 10 µM; IC50/EC50, Hela CellCycMod PI Cell Number (assay number 18) (HeLa cells; Cell Number): > 10 µM; IC50/EC50, Hela CellCycMod PI MI (assay number 17) (HeLa cells; MI): > 10 µM; IC50/EC50, Hela CellCycMod PI S Phase (assay number 15) (HeLa cells; S Phase): > 10 µM
CCCNCC(O)COc1ccccc1C(=O)CCc1ccccc1 (centres unmarked) [NCGC00015819-15] | 4.919 | 5.346 | > 33.33 | > 10 | > 10 | > 10 | > 10 | > 10 | 
CCC(=O)c1ccc2c(c1)N(CCCN(C)C)c1ccccc1S2.Cl [NCGC00015838-06] | 10.7311 | 25.7434 | > 33.33 |  |  |  |  |  | 
CN(C)CCN(Cc1ccc(Cl)cc1)c1ccccn1 [NCGC00016672-04] | 6.1408 | 4.782 | 16.7904 |  |  |  |  |  | 
CN1CCCN(C(c2ccccc2)c2ccc(Cl)cc2)CC1 (centres unmarked) [NCGC00018271-07] | > 3.703 | 15.6503 | > 33.33 |  |  |  |  |  | 
CCN(CCCCOC(=O)c1ccc(OC)c(OC)c1)C(C)Cc1ccc(OC)cc1.Cl (centres unmarked) [NCGC00018277-06] | 1.952 | 1.737 | > 33.33 | > 10 | > 10 | > 10 | > 10 | > 10 | 
CCN(CC)CCOCCOC(=O)C1(c2ccccc2)CCCC1 [NCGC00024595-08] | 7.687 | 4.656 | > 33.33 |  |  |  |  |  | 
CN(C)C/C=C(/c1ccc(Br)cc1)c1cccnc1.Cl.Cl.O [NCGC00025286-04] | 8.361 | 27.874 | > 33.33 |  |  |  |  |  | 
Cc1ccc(S(=O)(=O)NC(=O)NN2CC3CCCC3C2)cc1 (centres unmarked) [NCGC00095107-09] | 1.834 | 0.6403 | > 33.33 | > 10 | > 10 | > 10 | > 10 | > 10 | 
